How the values were obtained:
Ovine COX-1 = molecular target: T1, Ovine COX-1 (Ovis aries, UniProt P05979); assay: COX-1 in vitro enzymatic assay (PGE2 ELISA); assay type: biochemical; details: for inhibition at 20 µM: compound at 20 μM
T1 construct: purchased Sigma-Aldrich
T1 sequence (P05979 25-600): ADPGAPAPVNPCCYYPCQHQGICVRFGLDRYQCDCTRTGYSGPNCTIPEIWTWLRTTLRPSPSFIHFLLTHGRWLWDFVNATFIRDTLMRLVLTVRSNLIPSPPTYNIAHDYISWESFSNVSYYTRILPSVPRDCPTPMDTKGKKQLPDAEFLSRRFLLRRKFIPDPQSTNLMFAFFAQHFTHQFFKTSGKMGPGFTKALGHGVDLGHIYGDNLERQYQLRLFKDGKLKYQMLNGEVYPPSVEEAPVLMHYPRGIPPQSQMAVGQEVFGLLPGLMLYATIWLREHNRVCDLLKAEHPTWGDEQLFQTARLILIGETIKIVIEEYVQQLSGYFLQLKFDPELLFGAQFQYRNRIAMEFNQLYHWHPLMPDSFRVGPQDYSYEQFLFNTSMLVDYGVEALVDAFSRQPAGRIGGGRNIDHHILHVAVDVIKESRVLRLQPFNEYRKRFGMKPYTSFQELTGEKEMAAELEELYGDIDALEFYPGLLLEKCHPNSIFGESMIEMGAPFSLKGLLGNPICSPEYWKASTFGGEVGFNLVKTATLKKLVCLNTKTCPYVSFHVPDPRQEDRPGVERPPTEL
Protocol: (§1) The inhibitory activity of compounds was tested using in vitro enzymatic assay. Ovine COX-1 (1 unit/reaction) or human recombinant COX-2 (0.5 unit/reaction; both enzymes Sigma-Aldrich, USA) was added to 180 µL of 100 mM Tris buffer (pH 8.0), containing 5 μM porcine hematin, 18 mM L-epinephrine, and 50 μM Na2EDTA. Ten µL of tested compound dissolved in DMSO or pure DMSO (as a blank) were added to the reaction.
(§2) Sigma-Aldrich, USA) was used as a reference inhibitor. After 5 min incubation at room temperature, reaction was initiated by 5 µL of arachidonic acid (10 µM) and incubated 20 min in 37°C. Then the reaction was stopped by 20 µL of formic acid (10% v/v). The concentration of prostaglandin E2 (PGE2) was measured with Prostaglandin E2 ELISA kit (Enzo Life Sciences, USA). Reaction mixture was diluted 1:15 in assay buffer (provided in the kit) and incubated according to the manufacturer instructions.
(§3) The concentration of PGE2 produced during the reaction was estimated according to absorbance […]
(§4) inhibitory activity was calculated as percentual inhibition of PGE2 production compared to blank. At first, the inhibitory activity of compounds was tested at 20 µM to see if there is any activity. IC50 […]
(§5) of COX-2. The level of percentual inhibition was chosen based on the percentual inhibition caused by […]
(§6) All the experiments were carried out in duplicates and repeated at least two times. To test whether increasing substrate concentration influences the activity of […]
(§7) reference compound. The inhibitory activity was calculated as percentual inhibition of PGE2 production compared to blank with respective concentration of AA. […]

human recombinant COX-2 = molecular target: T2, human recombinant COX-2 (Homo sapiens, UniProt P35354); assay: COX-2 in vitro enzymatic assay (PGE2 ELISA); assay type: biochemical; details: for inhibition at 20 µM: compound at 20 μM
T2 construct: purchased Sigma-Aldrich
T2 sequence (P35354 18-604): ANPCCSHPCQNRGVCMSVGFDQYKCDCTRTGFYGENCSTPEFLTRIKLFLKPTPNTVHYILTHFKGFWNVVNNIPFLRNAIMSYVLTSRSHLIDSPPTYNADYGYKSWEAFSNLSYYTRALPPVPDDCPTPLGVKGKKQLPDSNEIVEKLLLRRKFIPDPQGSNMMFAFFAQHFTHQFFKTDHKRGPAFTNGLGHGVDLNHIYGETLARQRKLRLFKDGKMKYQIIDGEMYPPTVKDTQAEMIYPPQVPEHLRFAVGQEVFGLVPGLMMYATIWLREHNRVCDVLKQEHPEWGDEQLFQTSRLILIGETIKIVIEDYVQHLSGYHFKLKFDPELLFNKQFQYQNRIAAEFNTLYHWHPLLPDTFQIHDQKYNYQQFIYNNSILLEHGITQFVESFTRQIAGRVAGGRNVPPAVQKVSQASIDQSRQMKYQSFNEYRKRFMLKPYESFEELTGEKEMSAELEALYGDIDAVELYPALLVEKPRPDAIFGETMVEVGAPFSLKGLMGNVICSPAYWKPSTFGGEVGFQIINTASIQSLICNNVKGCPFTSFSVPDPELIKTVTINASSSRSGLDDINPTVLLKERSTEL
Protocol: as §1, §2, §3, §4, §5, §6, §7

Structure (SMILES) | inhibition at 20 µM (Ovine COX-1) [%] | inhibition at 20 µM (human recombinant COX-2) [%] | IC50 (human recombinant COX-2) [µM] | IC50 (Ovine COX-1) [µM] | selectivity index (COX-2/COX-1) (Ovine COX-1; ratio of IC50 COX-2 / IC50 COX-1) | inhibition of COX-2 (in words) (human recombinant COX-2; at 50 μM)
Cc1ccc(Nc2nc(/C=C/c3ccccc3)nc3ccccc23)cc1C [3a] | 50.5 | -38.7 | – | – | – | –
Cc1ccc(Nc2nc(/C=C/c3ccccc3)nc3ccccc23)cc1 [3b] | 95.2 | 3.54 | 43 ± 10.3 | – | – | –
COc1ccc(Nc2nc(/C=C/c3ccccc3)nc3ccccc23)cc1 [3c] | 95.3 | 2.64 | 37.3 ± 9.36 | – | – | –
C(=C\c1nc(N2CCNCC2)c2ccccc2n1)/c1ccccc1 [3d] | 31.2 | -4.94 | – | – | – | –
CCOC(=O)c1ccc(Nc2nc(/C=C/c3ccccc3)nc3ccccc23)cc1 [3e] | 6.76 | -16.3 | – | – | – | –
Fc1ccc(Nc2nc(/C=C/c3ccccc3)nc3ccccc23)cc1F [3f] | 27.6 | -14.5 | – | – | – | –
O=[N+]([O-])c1ccc(Nc2nc(/C=C/c3ccccc3)nc3ccccc23)cc1 [3g] | 13.7 | -24.4 | – | – | – | –
C(=C\c1nc(Nc2cccc3cccnc23)c2ccccc2n1)/c1ccccc1 [3h] | 31.5 | 3.02 | – | – | – | –
C(=C\c1nc(Nc2ccccn2)c2ccccc2n1)/c1ccccc1 [3i] | 17.7 | -11.1 | – | – | – | –
Cc1cc(Nc2nc(/C=C/c3ccccc3)nc3ccccc23)n[nH]1 [3j] | 41.6 | 13.8 | – | – | – | –
Fc1ccc(CNc2nc(/C=C/c3ccccc3)nc3ccccc23)cc1F [3k] | 96.8 | 71.8 | 10.1 ± 1.38 | 1.9 ± 0.69 | 5.32 | –
COC(=O)CCNc1nc(/C=C/c2ccccc2)nc2ccccc12 [3l] | 46.2 | 14.9 | – | – | – | –
CC(C)(C)c1ccc(Nc2nc(/C=C/c3ccccc3)nc3ccccc23)cc1 [3m] | 14 | 9.92 | – | – | – | –
CCCCc1ccc(Nc2nc(/C=C/c3ccccc3)nc3ccccc23)cc1 [3n] | 12.8 | 5.59 | – | – | – | –
CCCOc1ccc(Nc2nc(/C=C/c3ccccc3)nc3ccccc23)cc1 [3o] | 7.33 | -4.79 | – | – | – | –
Cc1cc(C)c(Nc2nc(/C=C/c3ccccc3)nc3ccccc23)c(C)c1 [3p] | 38 | -22.9 | – | – | – | –
Fc1cc(F)c(Nc2nc(/C=C/c3ccccc3)nc3ccccc23)c(F)c1 [3q] | 24.9 | 12.6 | – | – | – | –
Cc1cc(F)cc(Br)c1Nc1nc(/C=C/c2ccccc2)nc2ccccc12 [3r] | 30.6 | -1.77 | – | – | – | –
COc1cc(Nc2nc(/C=C/c3ccccc3)nc3ccccc23)cc(OC)c1 [3s] | 23.1 | -14.1 | – | – | – | –
FC(F)(F)c1cc(Nc2nc(/C=C/c3ccccc3)nc3ccccc23)cc(C(F)(F)F)c1 [3t] | 20.8 | 10.8 | – | – | – | –
FC(F)(F)c1ccc(Nc2nc(/C=C/c3ccccc3)nc3ccccc23)cc1 [3u] | 16.8 | 16.4 | – | – | – | –
Nc1ccc(Oc2nc(/C=C/c3ccccc3)nc3ccccc23)cc1 [3v] | 94.3 | 3.5 | > 50 | – | – | did not inhibit
COc1ccc(CNc2nc(Cl)nc3cc(Br)ccc23)cc1 [5a] | 48.8 | 22.7 | – | – | – | –

Reference: article PMC8040043, “Synthesis, Inhibitory Activity, and In Silico Modeling of Selective COX-1 Inhibitors with a Quinazoline Core” (ACS Medicinal Chemistry Letters, 2021)
